Data from PMC4133868 (BMB Reports, 2013).

Key:
f-bCblC [1] = molecular target: T1, f-bCblC (Bos taurus, UniProt Q5E9C8); assay: biochemical
T1 sequence (Q5E9C8 1-280): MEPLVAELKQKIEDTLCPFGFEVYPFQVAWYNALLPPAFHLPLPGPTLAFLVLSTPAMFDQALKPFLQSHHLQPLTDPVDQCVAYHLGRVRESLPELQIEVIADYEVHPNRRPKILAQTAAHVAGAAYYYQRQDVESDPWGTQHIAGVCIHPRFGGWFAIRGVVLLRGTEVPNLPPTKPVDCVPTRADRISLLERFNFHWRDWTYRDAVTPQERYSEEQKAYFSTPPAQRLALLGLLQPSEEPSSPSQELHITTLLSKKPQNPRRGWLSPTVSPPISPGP

t-bCblC [2] = molecular target: T2, t-bCblC (Bos taurus, UniProt Q5E9C8); assay: Isothermal titration calorimetry; format: binding, bovine
T2 sequence (Q5E9C8 1-244): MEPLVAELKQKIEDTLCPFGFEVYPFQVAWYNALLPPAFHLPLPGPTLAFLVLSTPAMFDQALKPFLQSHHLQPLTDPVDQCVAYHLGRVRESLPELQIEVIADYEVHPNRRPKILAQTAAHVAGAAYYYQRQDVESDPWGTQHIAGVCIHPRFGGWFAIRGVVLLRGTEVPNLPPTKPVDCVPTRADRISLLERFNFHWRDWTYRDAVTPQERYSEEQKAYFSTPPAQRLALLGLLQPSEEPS

t-bCblC [3] = molecular target: T2, t-bCblC
f-bCblC [4] = molecular target: T1, f-bCblC
t-bCblC [5] = molecular target: T2, t-bCblC; assay: biochemical
f-bCblC [6] = molecular target: T1, f-bCblC; settings: read-out: Kd of GSH for f-bCblC (ITC); cited from earlier work
[7] = hyperbolic fit of ΔTm vs GSH concentration

With `N[C@@H](CCC(=O)N[C@@H](CS)C(=O)NCC(=O)O)C(=O)O` [GSH, glutathione] the AC50 (f-bCblC [1]) was 3100 ± 300 µM, the Kd (t-bCblC [2]) was 206 ± 35 µM and the “melting temperature Tm of t-bCblC in the presence of GSH” value (t-bCblC [3]; 10 mM GSH, Tm without GSH 41.5 ± 0.3℃) was 45.2 ± 0.3 °C. The “maximal ΔTm (ΔTm max) of t-bCblC” value (t-bCblC [3]; [7]) was 5.2 ± 0.2 °C, the “melting temperature Tm of f-bCblC in the presence of GSH” value (f-bCblC [4]; 10 mM GSH, Tm without GSH 42.1 ± 0.4℃) was 44.2 ± 0.3 °C and the “maximal ΔTm (ΔTm max) of f-bCblC” value (f-bCblC [4]; [7]) was 2.8 ± 0.3 °C. The AC50 (t-bCblC [5]) was 2800 ± 300 µM and the Kd (f-bCblC [6]) was 355 ± 40 µM.
